Assay [1] has as its system binding of EGF to T47D cells. The assay can be described thus: Binding of 125I-EGF to tumor cells (R5020-pretreated T47D cells). It counts as cell-based, human. The following applies: for block of the R5020-caused increase of 125I-EGF binding to intact T47D cells: T47D cells treated 48 hours with 2 or 20 nM R5020 plus test substance, FIG. 5. On the procedure: R5020-Pretreated T47D cells were incubated for 2 hours with ^125I-EGF at 4° C. The unspecific binding was always less than 10% of the total binding.
In FIG. 4, a Scatchard analysis of the ^125I-EGF binding to T47D cells is shown. The cells were cultivated for 48 hours in the presence of 20 nM of R5020 with or without 20 nM of compound A and then washed. Then, the EGF-binding over a concentration range of 0.25 to 150 ng/ml of EGF was determined by incubation for 2 hours at 4° C. The insertions show the amount of bonded ligands relative to the logarithm of the free ligand concentration.
In FIG. 5, the binding of ^125I-EGF to intact T47D cells is shown. For this purpose, the cells were treated for 48 hours with 2 or 20 nM of R5020 plus compound A or onapristone or compound A alone.

Assay [2] concerns breast carcinoma cell line T47D. Put plainly: Growth studies, antiproliferative action on T47D cells (crystal violet). To be noted: 0.1 nM estradiol, 6 days, increasing concentrations, FIG. 1. The class given is cell-based, human. As for the experimental part:
The tumor cells were cultivated at 5000 cells/well in 96-well plates for 6 days in RPMI medium plus 10% bovine serum, 200 nM of insulin and 0.1 nM of estradiol in the presence of the compounds that are indicated in each case, and the growth was determined by staining with crystal violet.
2. […] T47D cells were cultivated in the presence (upper cross-hatching) or absence (lower cross-hatching) of 0.1 nM of E2 plus increasing concentrations of compound A (▴), onapristone (▪), ZK191703 (●) or 4-OH-Tam (♦).

The target in assay [3] is T1, progesterone receptor (PR) (Homo sapiens, UniProt P06401).
T1 construct: T47D cells were transiently transfixed with MTV-LUC; endogenous in cells; host or cells: T47D human breast carcinoma cells
T1 sequence (P06401 1-933): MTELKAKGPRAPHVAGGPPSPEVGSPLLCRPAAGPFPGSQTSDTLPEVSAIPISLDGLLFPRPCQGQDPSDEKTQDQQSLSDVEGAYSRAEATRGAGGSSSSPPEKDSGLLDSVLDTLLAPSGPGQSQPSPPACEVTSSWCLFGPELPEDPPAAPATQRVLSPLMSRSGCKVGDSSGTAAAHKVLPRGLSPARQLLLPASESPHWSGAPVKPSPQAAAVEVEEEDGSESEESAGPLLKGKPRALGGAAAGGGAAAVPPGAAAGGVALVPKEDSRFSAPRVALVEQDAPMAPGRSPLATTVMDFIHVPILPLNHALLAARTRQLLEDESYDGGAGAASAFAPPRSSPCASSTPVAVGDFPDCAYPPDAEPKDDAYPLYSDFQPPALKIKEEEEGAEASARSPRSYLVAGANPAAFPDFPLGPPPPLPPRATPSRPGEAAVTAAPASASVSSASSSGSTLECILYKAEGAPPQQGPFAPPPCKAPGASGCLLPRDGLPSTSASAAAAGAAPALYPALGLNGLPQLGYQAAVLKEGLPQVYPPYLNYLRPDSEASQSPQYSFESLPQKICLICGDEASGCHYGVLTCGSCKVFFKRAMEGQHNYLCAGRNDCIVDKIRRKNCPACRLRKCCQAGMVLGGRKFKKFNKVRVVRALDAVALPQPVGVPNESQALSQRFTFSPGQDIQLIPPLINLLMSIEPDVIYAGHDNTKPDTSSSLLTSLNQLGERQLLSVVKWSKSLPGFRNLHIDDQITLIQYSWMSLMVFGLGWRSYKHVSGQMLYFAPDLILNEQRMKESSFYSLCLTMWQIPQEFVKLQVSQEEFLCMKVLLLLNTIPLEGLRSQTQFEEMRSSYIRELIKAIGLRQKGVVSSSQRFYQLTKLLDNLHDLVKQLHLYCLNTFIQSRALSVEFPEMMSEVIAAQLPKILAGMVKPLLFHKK
The assay can be described thus: Transactivation assay (MTV-LUC, luciferase) in T47D cells. The class given is cell-based. The following applies: T47D cells transiently transfected with MTV-LUC, treated with R5020 plus increasing concentrations, 24 hours, FIG. 3. On the procedure: T47D cells were transiently transfixed with MTV-LUC (Cato et al., EMBO J., 9: 2237-40) and cultivated in the absence or the presence of 1 nM of R5020. In the test on a PR-mediated antagonism, the transiently transfixed T47D cells were treated with R5020 and in addition with increasing concentrations of compound A or RU486. After 24 hours, a luciferase test was performed.
In the test for a PR-mediated antagonism, the transiently transfixed T47D cells were treated with 0.1 nM of R5020 and increasing concentrations of compound A or […] (b).

Another assay has as its system EGF-receptor expression. Put plainly: EGF-receptor expression in R5020-stimulated T47D cells. It counts as cell-based, human. To be noted: T47D cells stimulated with R5020.

The structures appear in SMILES notation. Entries after “also recorded” stand apart in the source; their conditions may differ.

As for `CN(C)c1ccc([C@H]2C[C@]3(C)[C@@H](CC[C@]3(O)CCCO)[C@@H]3CCC4=CC(=O)CCC4=C32)cc1` [onapristone, 11β-[p-(dimethylamino)phenyl]-17α-hydroxy-17-(3-hydroxypropyl)-13α-estra-4,9-dien-3-one, reference compound], the “block of the R5020-caused increase of 125I-EGF binding to intact T47D cells” value in assay [1] is on record as “considerably weaker effect; also recorded: less efficiently”.

For `CC(=O)c1ccc([C@H]2C[C@@]3(C)[C@@H](CC[C@@]3(O)C(F)(F)C(F)(F)F)[C@@H]3CCC4=CC(=O)CCC4=C32)cc1` [compound A, 11β-(4-acetylphenyl)-17β-hydroxy-17α-(1,1,2,2,2-pentafluoroethyl)-estra-4,9-dien-3-one], the “antiproliferative action / block of estradiol-stimulated growth of T47D cells” value in assay [2] is reported as “significant antiproliferative action at extremely small concentrations; also recorded: effectively blocked”. In assay [1], the “block of the R5020-caused increase of 125I-EGF binding to intact T47D cells” value was “blocks the increase of the EGF-binding; also recorded: could be prevented”. For the same compound, the “block of the R5020-caused increase of 125I-EGF binding (Scatchard analysis)” value in assay [1] (T47D cells, 48 hours, 20 nM R5020 with 20 nM compound A, EGF 0.25 to 150 ng/ml, 2 hours at 4° C, FIG. 4) is listed as “block the increase of the EGF binding”. Moreover, the “block of transcriptional activity of PR (PR-mediated antagonism)” value in assay [3] was “could be blocked”. Also, the “block of R5020-increased EGF-receptor expression” value in the assay on EGF-receptor expression is given as “blocked”.
